Counter-ions that a name gives are not always drawn.
Target: CRAC channels (Homo sapiens (Human), UniProt Q96D31)
Test: In-vitro CRAC channel inhibition assay in Jurkat cells (thapsigargin-induced calcium influx)
Format: cell-based
Procedure: 1A. In-Vitro CRAC Channel Inhibition Assay in Jurkat Cells
Plate is incubated at 37° C./5% CO2 for 30 min followed by further 15 min incubation at room temperature. Test compounds (DMSO stocks diluted in Ca^2+ and Mg^2+ free Hanks buffer) at desired concentrations were added to the wells and incubated for 15 min. Thapsigargin (1 μM final concentration) was added to the wells and incubated for 15 min to inhibit the Sarco-endoplasmic reticulum Ca^2+ ATPase pump thereby depleting endoplasmic calcium and raising cytosolic calcium concentrations. Store-operated calcium entry was initiated by adding extracellular Ca^2+ to a final concentration of 1.8 mM. Fluorescence was monitored over 5 min on a plate reader (BMG Labtech., Germany) with excitation at 485 nm and; an emission wavelength at 520 nm. Data were analyzed using GraphPad Prism. IC50 for each compound was determined based on the percent inhibition of thapsigargin-induced calcium influx into cells.

Sequence of CRAC channels (Q96D31 whole entry): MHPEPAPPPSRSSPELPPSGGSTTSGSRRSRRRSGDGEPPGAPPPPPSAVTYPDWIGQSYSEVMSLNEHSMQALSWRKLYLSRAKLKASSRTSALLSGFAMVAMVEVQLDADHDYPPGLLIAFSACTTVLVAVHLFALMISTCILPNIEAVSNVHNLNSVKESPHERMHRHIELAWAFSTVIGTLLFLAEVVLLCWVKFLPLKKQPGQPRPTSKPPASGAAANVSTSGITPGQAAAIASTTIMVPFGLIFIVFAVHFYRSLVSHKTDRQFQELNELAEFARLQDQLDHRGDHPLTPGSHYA

SMILES | inhibition at 1 µM
Cc1ncncc1C(=O)Nc1ccc(-n2nc(C3CC3)cc2C2CC2)cc1 [Example 18, N-[4-(3,5-dicyclopropyl-1H-pyrazol-1-yl)phenyl]-4-methylpyrimidine-5-carboxamide] | 82.8%
Cc1ccccc1C(=O)Nc1ccc(-n2nc(C(F)(F)F)cc2C2CC2)c(F)c1 [Example 86, N-{4-[5-cyclopropyl-3-(trifluoromethyl)-1H-pyrazol-1-yl]-3-fluorophenyl}-2-methylbenzamide] | 86.6%
Cc1ncsc1C(=O)N(C)c1ccc(-n2nc(C(F)(F)F)cc2C2CC2)cc1 [Example 54, N-{4-[5-cyclopropyl-3-(trifluoromethyl)-1H-pyrazol-1-yl]phenyl}-N,4-dimethylthiazole-5-carboxamide] | 0%
Cc1ncncc1NC(=O)c1ccc(-n2nc(C(F)(F)F)cc2C2CC2)c(F)c1 [Example 134, 4-[5-cyclopropyl-3-(trifluoromethyl)-1H-pyrazol-1-yl]-3-fluoro-N-(4-methylpyrimidin-5-yl)benzamide] | 18.6%
O=C(Nc1ccc(-n2nc(C3CC3)cc2C2CC2)cc1)c1cccnc1 [Example 14, N-[4-(3,5-dicyclopropyl-1H-pyrazol-1-yl)phenyl]nicotinamide hydrochloride] | 25.9%
Cc1oncc1C(=O)Nc1ccc(-n2nc(C(F)(F)F)cc2C2CC2)c(F)c1 [Example 84, N-{4-[5-cyclopropyl-3-(trifluoromethyl)-1H-pyrazol-1-yl]-3-fluorophenyl}-5-methylisoxazole-4-carboxamide] | 100%
O=C(Nc1ccc(-n2nc(C(F)(F)F)cc2C2CC2)nc1)c1c(Cl)cncc1Cl [Example 115, 3,5-dichloro-N-{6-[5-cyclopropyl-3-(trifluoromethyl)-1H-pyrazol-1-yl]pyridin-3-yl}isonicotmamide] | 51.3%
Cc1noc(C)c1C(=O)Nc1ccc(-n2nc(C(F)(F)F)cc2C2CC2)cc1 [Example 57, N-{4-[5-cyclopropyl-3-(trifluoromethyl)-1H-pyrazol-1-yl]phenyl}-3,5-dimethylisoxazole-4-carboxamide] | 83.8%
Cc1noc(C)c1C(=O)Nc1ccc(-n2nc(C(F)(F)F)cc2C2CC2)c(F)c1 [Example 85, N-{4-[5-cyclopropyl-3-(trifluoromethyl)-1H-pyrazol-1-yl]-3-nuorophenyl}-3,5-dimethylisoxazole-4-carboxamide] | 76.6%
Cc1ncsc1C(=O)Nc1ccc(-n2nc(C(F)(F)F)c(Cl)c2C2CC2)cc1 [Example 80, N-{4-[4-chloro-5-cyclopropyl-3-(trifluoromethyl)-1H-pyrazol-1-yl]phenyl}-4-methylthiazole-5-carboxamide] | 81.6%
Cc1ncsc1C(=O)Nc1ccc(-n2nc(C(F)(F)F)c(Cl)c2C2CC2)nc1 [Example 123, N-{6-[4-chloro-5-cyclopropyl-3-trifluoromethyl-1H-pyrazol-1-yl]pyridin-3-yl}-4-methylthiazole-5-carboxamide] | 31%
O=C(Nc1ccc(-n2nc(C(F)(F)F)cc2C2CC2)nc1)c1ccccc1Cl [Example 105, 2-chloro-N-{6-[5-cyclopropyl-3-(trifluoromethyl)-1H-pyrazol-1-yl]pyridin-3-yl}benzamide hydrochloride] | 71.2%
O=C(Nc1ccc(-n2nc(C(F)(F)F)cc2C2CC2)nc1)c1ccncc1 [Example 113, N-{6-[5-cyclopropyl-3-(trifluoromethyl)-1H-pyrazol-1-yl]pyridin-3-yl}isonicotinamide hydrochloride] | 100%
Cc1ncncc1NC(=O)Nc1ccc(-n2nc(C(F)(F)F)cc2C2CC2)c(F)c1 [Example 97, 1-{4-[5-cyclopropyl-3-(trifluoromethyl)-1H-pyrazol-1-yl]-3-fluorophenyl}-3-(4-methylpyrimidin-5-yl)urea] | 97%
Cc1noc(C)c1C(=O)Nc1ccc(-n2nc(C3CC3)cc2C2CC2)nc1 [Example 41, N-[6-(3,5-dicyclopropyl-1H-pyrazol-1-yl)pyridin-3-yl]-3,5-dimethylisoxazole-4-carboxamide] | 0%
